Results published in patent publication US20050107289A1, “Anti-microbial peptides and compositions” (priority 2001, published 2005).
Structures can show the parent of a compound that is named as a salt. Where two headings read alike, the source gives them in different places. Non-standard residues stand in square brackets, D forms with d. Residues, ends and D or L forms follow the SMILES beside them. NMeL = CN[C@@H](CC(C)C)C(=O)O

How the values were obtained:
murine red blood cells = assay: Red blood cell hemolysis; format: cell-based, mouse; parameters: RBC Hemolysis (HD50): unit not given here
In short: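 Washed murine erythrocytes at 5% in saline with 10% FBS were exposed to serial peptide dilutions for 30 min at 37° C. Supernatant absorbance at 560 nm was read, with saline as 0% and 1% Triton X-100 as 100% hemolysis.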

[1] = tested on: S. aureus (MRSA) ATCC 33591; format: cell-based, Staphylococcus aureus; details: for MRSA (in vitro activity): Table 9; for MRSA MIC: ATCC 33591
In short: (§1)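 First, peptide stocks in 5% DMSO/9% sucrose were quantified and diluted 2-fold over roughly 400-2 μg/ml. Next, overnight cultures were diluted 4000-fold to ~2.5×10^5 cfu/ml and combined with peptide. Minimum inhibitory concentrations followed NCCLS broth macro- or microdilution procedures.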

[2] = tested on: vancomycin-resistant Enterococus faecalis (VRE)(ATCC 51575); format: cell-based, Enterococcus faecalis; parameters: key to VRE (in vitro activity): peptide concentration in μg/ml (broth dilution assay); details: for VRE (in vitro activity): Table 9; for VRE MIC: ATCC 51575
In short: as §1

[3] = tested on: Bacillus cereus ATCC 11778; format: cell-based
Protocol: (§2) The antimicrobial activity of the peptides was determined using a broth dilution assay essentially as descried in the guidelines of the National Committee for […] (NCCLS) [National Committee for Clinical Laboratory Standards. Methods for dilution antimicrobial susceptibility tests for bacteria that grow aerobically. Fourth edition. Approved Standard (1997). Document M7-A4. […] The microdilution method has the advantages of requiring less amount of peptide for each assay and the possibility of multiple simultaneous inoculations and was used in most studies. Several of the strains of bacteria tested are further described in Table 3.
(§3) Preparation of peptide solutions. Stock peptide solutions were prepared in 5% DMSO in aq. sucrose (9%). Determination of peptide concentrations was done by quantitative HPLC analysis using known concentrations of internal standards and/or by measuring UV absorption of tryptophane-containing peptide solutions in H2O (λ=280 εTrp: 5690). Serial 2-fold dilutions were made in the above DMSO/aq. sucrose (9%) mixture with concentrations ranging approximately 400-2 μg/ml and aliquots were dispensed in test tubes (100 μl) for the macrodilution test or in microtiter plates (20 μl) for the microdilution assays.
(§4) Inoculum preparation. Overnight cultures of different microorganisms grown in suitable media were diluted 4000 times to an approximate inoculum size of 2.5×10^5 cfu/ml.
(§5) Macrodilution method. Macrodilution methods were performed using procedures similar to those described in the National Committee for Clinical Laboratory Standards. Methods for dilution antimicrobial susceptibility tests for bacteria that grow aerobically. Fourth edition. Approved Standard (1997). Document M7-A4. (NCCLS,Villanova, Pa., 1997). Two ml aliquots of the above inoculum were dispensed to test tubes containing different peptide solutions.
(§6) Microdilution method. Microdilution methods were performed using procedures similar to those described in the National Committee for Clinical Laboratory Standards. Methods for dilution antimicrobial susceptibility tests for bacteria that grow aerobically. Fourth edition. Approved Standard (1997). Document M7-A4.

[4] = tested on: Streptococcus pneumoniae (ATCC 6301); format: cell-based
Protocol: as §2, §3, §4, §5, §6

[5] = media a: anti-microbial media-3 (AM-3)
[6] = media b: cation adjusted Meuller Hinton broth (MHBII)
[7] = media c: Brain Heart Infusion (BHI)

Row | Molecule | RBC Hemolysis (HD50) (murine red blood cells) | MRSA (in vitro activity) [1, 5] | VRE (in vitro activity) ([2]; media a: AM-3) | MRSA (in vitro activity) [1, 6] | VRE (in vitro activity) [2, 7] | other results
1 | CC(C)C[C@@H]1NC(=O)[C@@H](Cc2c[nH]c3ccccc23)NC(=O)[C@H](CCC(N)=O)NC(=O)[C@@H](CCC(=O)O)NC(=O)[C@H](CCCCN)NC(=O)[C@@H](Cc2c[nH]c3ccccc23)NC1=O [SEQ ID NO:118, [KEQWLW]] (cyclo(K[dE]Q[dW]L[dW])) | >115 | >115 | >115 |  |  | 
2 | CC(C)C[C@@H]1NC(=O)[C@@H](Cc2c[nH]c3ccccc23)NC(=O)[C@H](CCCCN)NC(=O)[C@@H](Cc2c[nH]cn2)NC(=O)[C@H](CCCCN)NC(=O)[C@@H](Cc2c[nH]c3ccccc23)NC1=O [SEQ ID NO:119, [KHKWLW]] (cyclo(K[dH]K[dW]L[dW])) | >115 | 12 | 60 |  |  | 
3 | CC(C)C[C@@H]1NC(=O)[C@@H](Cc2c[nH]c3ccccc23)NC(=O)[C@H](CCC(N)=O)NC(=O)[C@@H](Cc2c[nH]cn2)NC(=O)[C@H](CCCCN)NC(=O)[C@@H](Cc2c[nH]c3ccccc23)NC1=O [SEQ ID NO:120, [KHQWLW]] (cyclo(K[dH]Q[dW]L[dW])) | 115.0 | 43 | 57 |  |  | 
4 | CC(C)C[C@@H]1NC(=O)[C@@H](Cc2c[nH]c3ccccc23)NC(=O)[C@H](CCCCN)NC(=O)[C@@H](CCCCN)NC(=O)[C@H](CCCCN)NC(=O)[C@@H](Cc2c[nH]c3ccccc23)NC1=O [SEQ ID NO:121, [KKKWLW]] (cyclo(K[dK]K[dW]L[dW])) | >111 | 23 | 51 |  |  | 
5 | CC(C)C[C@@H]1NC(=O)[C@@H](Cc2c[nH]c3ccccc23)NC(=O)[C@H](CCC(N)=O)NC(=O)[C@@H](CCCCN)NC(=O)[C@H](CCCCN)NC(=O)[C@@H](Cc2c[nH]c3ccccc23)NC1=O [SEQ ID NO:122, [KKQWLW]] (cyclo(K[dK]Q[dW]L[dW])) | >215 | 27 | 81 |  |  | 
6 | CC(C)C[C@@H]1NC(=O)[C@@H](Cc2c[nH]c3ccccc23)NC(=O)[C@H](CCC(N)=O)NC(=O)[C@@H](CC(N)=O)NC(=O)[C@H](CCCCN)NC(=O)[C@@H](Cc2c[nH]c3ccccc23)NC1=O [SEQ ID NO:123, [KNQWLW]] (cyclo(K[dN]Q[dW]L[dW])) | >74 | >74 | >74 |  |  | 
7 | CC(C)C[C@@H]1NC(=O)[C@@H](Cc2c[nH]c3ccccc23)NC(=O)[C@H](CCC(N)=O)NC(=O)[C@@H](CCC(N)=O)NC(=O)[C@H](CCCCN)NC(=O)[C@@H](Cc2c[nH]c3ccccc23)NC1=O [SEQ ID NO:124, [KQQWLW]] (cyclo(K[dQ]Q[dW]L[dW])) | >35 | >35 | >35 |  |  | 
8 | CC(C)C[C@@H]1NC(=O)[C@@H](Cc2c[nH]c3ccccc23)NC(=O)[C@H](CCCCN)NC(=O)[C@@H](CCCNC(=N)N)NC(=O)[C@H](CCCCN)NC(=O)[C@@H](Cc2c[nH]c3ccccc23)NC1=O [SEQ ID NO:125, [KRKWLW]] (cyclo(K[dR]K[dW]L[dW])) | >174 | 9 | 33 |  |  | 
9 | CC(C)C[C@@H]1NC(=O)[C@@H](Cc2c[nH]c3ccccc23)NC(=O)[C@H](CCCCN)NC(=O)[C@@H](CO)NC(=O)[C@H](CCCCN)NC(=O)[C@@H](Cc2c[nH]c3ccccc23)NC1=O [SEQ ID NO:126, [KSKWLW]] (cyclo(K[dS]K[dW]L[dW])) | >65 | 19 | 38 |  |  | 
10 | CC(C)[C@H]1NC(=O)[C@H](Cc2ccc(O)cc2)NC(=O)[C@@H](CO)NC(=O)[C@H](CCCCN)NC(=O)[C@@H](CO)NC(=O)[C@H](Cc2c[nH]c3ccccc23)NC1=O [SEQ ID NO:127, [KSYVWS]] (cyclo(K[dS]Y[dV]W[dS])) | >200 |  |  | >200 | >200 | 
11 | CC(C)C[C@@H]1NC(=O)[C@@H](Cc2c[nH]c3ccccc23)NC(=O)[C@H](CCCCN)NC(=O)[C@@H](Cc2ccccc2)NC(=O)[C@H](CCCCN)NC(=O)[C@@H](Cc2c[nH]c3ccccc23)NC1=O [SEQ ID NO:128, [KFKWLW]] (cyclo(K[dF]K[dW]L[dW])) | >61 | 14 | 43 |  |  | 
12 | CC(C)C[C@@H]1NC(=O)[C@@H](Cc2c[nH]c3ccccc23)NC(=O)[C@H](CCC(N)=O)NC(=O)[C@@H](Cc2ccccc2)NC(=O)[C@H](CCCCN)NC(=O)[C@@H](Cc2c[nH]c3ccccc23)NC1=O [SEQ ID NO:129, [KFQWLW]] (cyclo(K[dF]Q[dW]L[dW])) | >81 | 25 | 10 |  |  | 
13 | C[C@H](O)[C@H]1NC(=O)[C@H](CCCNC(=N)N)NC(=O)[C@@H](CO)NC(=O)[C@H](CCC(N)=O)NC(=O)[C@@H](Cc2c[nH]cn2)NC(=O)[C@H](CCCCN)NC1=O [SEQ ID NO:130, [KHQSRT]] (cyclo(K[dH]Q[dS]R[dT])) | >200 |  |  | >200 | >200 | 
14 | CC[C@H](C)[C@@H]1NC(=O)[C@@H](CO)NC(=O)[C@H](CCCCN)NC(=O)[C@@H]([C@H](C)O)NC(=O)[C@H]([C@@H](C)CC)NC(=O)[C@@H](CCCNC(=N)N)NC1=O [SEQ ID NO:132, [KSIRIT]] (cyclo(K[dS]I[dR]I[dT])) | 175 |  |  | >200 | >200 | 
15 | CC(C)C[C@H]1C(=O)N[C@H](Cc2c[nH]c3ccccc23)C(=O)N(C)[C@@H](CC(C)C)C(=O)N[C@H](Cc2c[nH]c3ccccc23)C(=O)N[C@@H](CCCCN)C(=O)N[C@H](CCC(N)=O)C(=O)N[C@@H](CCCNC(=N)N)C(=O)N[C@H](Cc2c[nH]c3ccccc23)C(=O)N1C [SEQ ID NO:140, c[KQRW^MeLW^MeLW]] (cyclo(K[dQ]R[dW][NMeL][dW][NMeL][dW])) |  |  |  |  |  | MRSA MIC [1]: 10 µg/mL; B. cerius MIC [3]: 8 µg/mL; S. pneum. MIC [4]: 10 µg/mL; VRE MIC [2]: 100 µg/mL
16 | CC(C)C[C@H]1NC(=O)[C@H](CCCCN)NC(=O)[C@@H](CCCNC(=N)N)NC(=O)[C@H](Cc2c[nH]c3ccccc23)NC(=O)[C@@H](CC(C)C)NC(=O)[C@H](Cc2c[nH]c3ccccc23)NC1=O [SEQ ID NO:141, [RKLWLW]] (cyclo([dR]K[dL]W[dL]W)) |  |  |  |  |  | MRSA MIC [1]: 25 µg/mL; B. cerius MIC [3]: 13 µg/mL; S. pneum. MIC [4]: 20 µg/mL; VRE MIC [2]: 25 µg/mL
17 | CC(C)C[C@H]1NC(=O)[C@H](Cc2c[nH]c3ccccc23)NC(=O)[C@@H](CCCCN)NC(=O)[C@H](CCCCN)NC(=O)[C@@H](CCCCN)NC(=O)[C@H](Cc2c[nH]c3ccccc23)NC(=O)[C@@H](CC(C)C)NC(=O)[C@H](Cc2c[nH]c3ccccc23)NC1=O [[KKKWLWLW-HCl] (17), cyclo[-(D-Lys-Lys-D-Lys-(Trp-D-Leu)2-Trp-]] (cyclo([dK]K[dK]W[dL]W[dL]W)) | 75 |  |  | 6 | 6 | 
18 | CC(C)C[C@H]1NC(=O)[C@H](Cc2c[nH]c3ccccc23)NC(=O)[C@@H](CCCNC(=N)N)NC(=O)[C@H](CCC(N)=O)NC(=O)[C@@H](CCCCN)NC(=O)[C@H](Cc2c[nH]c3ccccc23)NC(=O)[C@@H](CC(C)C)NC(=O)[C@H](Cc2c[nH]c3ccccc23)NC1=O [[KQRWLWLW-HCl] (8), cyclo-(D-Lys-Gln-D-Arg-Trp-D-Leu-Trp-D-Leu-Trp)] (cyclo([dK]Q[dR]W[dL]W[dL]W)) | 70 |  |  | 8 | 8 | 
19 | CC(C)C[C@H]1NC(=O)[C@H](Cc2c[nH]c3ccccc23)NC(=O)[C@@H](Cc2c[nH]cn2)NC(=O)[C@H](Cc2c[nH]cn2)NC(=O)[C@@H](CO)NC(=O)[C@H](Cc2c[nH]c3ccccc23)NC(=O)[C@@H](CC(C)C)NC(=O)[C@H](Cc2c[nH]c3ccccc23)NC1=O [[SHHWLWLW-HCl] (15), SHHWLWLW] (cyclo([dS]H[dH]W[dL]W[dL]W)) | 40 |  |  | 6 | 6 | 
20 | [KSOLWLWL] [SEQ ID NO:63] |  |  |  | 12 | 25 | RBC Hemolysis (HD50) (murine red blood cells; Table 9): 150
